Reference: publication PMC8125885, “6,6′-Dihydroxythiobinupharidine (DTBN) Purified from Nuphar lutea Leaves Is an Inhibitor of Protein Kinase C Catalytic Activity” (Molecules, 2021)
Read-outs that look alike come from different tables or passages of the source.

Experiments:
[1] = target: T1, PKCη (Homo sapiens, UniProt P24723); design: method as in PMID 22078216; settings: co-crystallized inhibitor at PKCη; cited from earlier work
[2] = target: T2, PKCγ (Homo sapiens, UniProt P05129); test: In vitro kinase assay (32P-MBP phosphorylation by immunoprecipitated HA-tagged PKC); type: biochemical; settings: MBP substrate, 100 μM cold ATP, 30 min at 32 °C
T2 construct: made in house; host or cells: HEK-293T
Protocol: (§1) To test the effect of DTBN on the activity of PKC isoforms, in vitro kinase assays were performed in a dose–response experiment, and results are presented in Figure 1. At these concentrations, the kinase activities of PKCs were inhibited by DTBN in a dose-dependent manner, having the most profound effect on conventional PKCα and PKCγ as compared to other PKCs tested (Figure 1 and Table 1). […] Immunoblotting was performed with antibodies against HA-tagged different PKCs and against Myelin Basic Protein (MBP) as a loading control.
(§2) Figure 1 DTBN downregulates PKC catalytic activity in a concentration-dependent manner. In vitro kinase assays of indicated PKC isoforms were performed, as described in Materials and Methods, utilizing MBP as a substrate. Before the initiation of the assay, DTBN was added to the samples at several concentrations. Following the termination of the assay, sample proteins were then resolved by SDS-PAGE and developed by autoradiography (a). p^32-MBP and MBP protein band signals were quantified using Image Lab software, and the relative amounts of p^32-MBP/MBP were presented in a line graph (b). Immunoblotting against HA and MBP to detect overexpressed PKC expression, and MBP, respectively, monitor equal loading of samples. Data are representative of two independent experiments. Molecular weight markers (in kDa) are indicated on the left, and arrows mark the positions of the indicated protein bands. IgH, Ig heavy chain.
(§3) PKC kinase assays were performed, as described, using myelin-basic protein (5 μg/100 μL) (MBP, #M1891, Sigma-Aldrich, St. Louis, MO, USA) as a substrate. Whole-cell lysates (75 μg per sample) of HEK-293T cells, each overexpressing different HA-tagged PKCs, were subjected to immunoprecipitation using protein A/G-agarose bead-immobilized anti-HA mAbs (#MMS-101R, BioLegend, San Diego, CA, USA). The immunoprecipitates were washed four times with Triton X-100-containing lysis buffer, and lastly with PKC kinase assay buffer (20 mM HEPES, pH 7.5, 10 mM MgCl2, and 0.1 mM EGTA). The immunoprecipitates were then equally divided to Eppendorf safe-lock tubes, followed by the addition of indicated concentrations of DTBN (μg/mL) and subsequent incubation in a kinase reaction mixture (10 mM ΜgCl2, 20 mM HEPES, 0.1 mM EGTA, 50 μg/mL phosphatidylserine, and 5μCi γ-32P-ATP (PerkinElmer, Waltham, MA, USA), also including 100 μM cold ATP and 1.5 mM CaCl2 (for conventional PKCs), and incubated for 30 min at 32 °C with gentle shaking. Reactions were terminated by the addition of 5× sample buffer and boiling for 5 min, followed by SDS-PAGE (10% acrylamide gels) under reducing conditions. Samples were then transferred to nitrocellulose membranes (Sigma-Aldrich) that were developed by immunoblotting and autoradiography. After the detection of the phosphorylated substrate (^32P-MBP) by autoradiography, the membranes were probed with anti-HA and anti-MBP mAbs (#SMI-99P, BioLegend, San Diego, CA, USA), (loading controls). ^32P-MBP and MBP protein bands were quantified using Image Lab software (5.2.1).

[3] = target: T3, PKCα (Homo sapiens, UniProt P17252); test: as above; type: biochemical; settings: MBP substrate, 100 μM cold ATP, 30 min at 32 °C
T3 construct: made in house; host or cells: HEK-293T
Protocol: as §1, §2, §3

[4] = target: T4, PKCζ (Homo sapiens, UniProt Q05513); test: as above; type: biochemical; settings: MBP substrate, 100 μM cold ATP, 30 min at 32 °C
T4 construct: made in house; host or cells: HEK-293T
T4 sequence (Q05513 1-592): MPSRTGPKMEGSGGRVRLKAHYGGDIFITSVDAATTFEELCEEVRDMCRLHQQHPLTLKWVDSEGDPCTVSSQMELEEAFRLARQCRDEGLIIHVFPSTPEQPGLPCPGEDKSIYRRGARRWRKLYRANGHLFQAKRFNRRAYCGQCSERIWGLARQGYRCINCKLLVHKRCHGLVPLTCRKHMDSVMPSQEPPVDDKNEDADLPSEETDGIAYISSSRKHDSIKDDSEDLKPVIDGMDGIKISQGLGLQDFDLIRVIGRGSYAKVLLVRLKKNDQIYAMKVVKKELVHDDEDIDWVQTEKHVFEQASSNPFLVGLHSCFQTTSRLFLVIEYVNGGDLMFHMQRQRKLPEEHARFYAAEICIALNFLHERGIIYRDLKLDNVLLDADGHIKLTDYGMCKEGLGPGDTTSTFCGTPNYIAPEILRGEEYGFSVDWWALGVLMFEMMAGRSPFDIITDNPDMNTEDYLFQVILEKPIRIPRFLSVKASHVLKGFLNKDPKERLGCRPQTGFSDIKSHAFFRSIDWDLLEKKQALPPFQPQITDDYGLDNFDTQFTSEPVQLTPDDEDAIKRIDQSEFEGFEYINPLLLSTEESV
Protocol: as §1, §2, §3

[5] = target: T1, PKCη; test: as above; type: biochemical; settings: MBP substrate, 100 μM cold ATP, 30 min at 32 °C
Protocol: as §1, §2, §3

[6] = target: T5, PKCε (Homo sapiens, UniProt Q02156); test: as above; type: biochemical; settings: MBP substrate, 100 μM cold ATP, 30 min at 32 °C
T5 construct: made in house; host or cells: HEK-293T
T5 sequence (Q02156 1-737): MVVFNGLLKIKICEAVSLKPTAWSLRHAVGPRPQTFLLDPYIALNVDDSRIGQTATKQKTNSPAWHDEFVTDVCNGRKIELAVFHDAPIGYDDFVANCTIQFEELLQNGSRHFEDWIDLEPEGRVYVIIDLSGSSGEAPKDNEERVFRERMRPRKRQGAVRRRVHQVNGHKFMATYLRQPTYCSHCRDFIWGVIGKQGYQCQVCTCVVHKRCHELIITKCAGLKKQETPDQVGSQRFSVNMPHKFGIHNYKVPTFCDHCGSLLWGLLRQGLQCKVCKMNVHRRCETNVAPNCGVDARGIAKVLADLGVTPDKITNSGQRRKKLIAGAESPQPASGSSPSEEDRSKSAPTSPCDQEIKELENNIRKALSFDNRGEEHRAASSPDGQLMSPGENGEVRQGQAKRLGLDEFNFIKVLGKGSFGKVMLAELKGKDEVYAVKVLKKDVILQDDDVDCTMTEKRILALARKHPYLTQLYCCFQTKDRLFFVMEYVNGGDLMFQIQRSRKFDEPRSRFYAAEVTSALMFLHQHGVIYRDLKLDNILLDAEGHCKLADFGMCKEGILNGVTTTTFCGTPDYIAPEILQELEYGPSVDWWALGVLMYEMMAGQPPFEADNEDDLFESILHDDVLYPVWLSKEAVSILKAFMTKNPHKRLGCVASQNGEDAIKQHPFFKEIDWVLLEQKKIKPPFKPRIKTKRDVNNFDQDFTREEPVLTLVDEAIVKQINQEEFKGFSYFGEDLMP
Protocol: as §1, §2, §3

[7] = target: T6, PKCδ (Homo sapiens, UniProt Q05655); test: as above; type: biochemical; settings: MBP substrate, 100 μM cold ATP, 30 min at 32 °C
T6 construct: made in house; host or cells: HEK-293T
T6 sequence (Q05655 whole entry): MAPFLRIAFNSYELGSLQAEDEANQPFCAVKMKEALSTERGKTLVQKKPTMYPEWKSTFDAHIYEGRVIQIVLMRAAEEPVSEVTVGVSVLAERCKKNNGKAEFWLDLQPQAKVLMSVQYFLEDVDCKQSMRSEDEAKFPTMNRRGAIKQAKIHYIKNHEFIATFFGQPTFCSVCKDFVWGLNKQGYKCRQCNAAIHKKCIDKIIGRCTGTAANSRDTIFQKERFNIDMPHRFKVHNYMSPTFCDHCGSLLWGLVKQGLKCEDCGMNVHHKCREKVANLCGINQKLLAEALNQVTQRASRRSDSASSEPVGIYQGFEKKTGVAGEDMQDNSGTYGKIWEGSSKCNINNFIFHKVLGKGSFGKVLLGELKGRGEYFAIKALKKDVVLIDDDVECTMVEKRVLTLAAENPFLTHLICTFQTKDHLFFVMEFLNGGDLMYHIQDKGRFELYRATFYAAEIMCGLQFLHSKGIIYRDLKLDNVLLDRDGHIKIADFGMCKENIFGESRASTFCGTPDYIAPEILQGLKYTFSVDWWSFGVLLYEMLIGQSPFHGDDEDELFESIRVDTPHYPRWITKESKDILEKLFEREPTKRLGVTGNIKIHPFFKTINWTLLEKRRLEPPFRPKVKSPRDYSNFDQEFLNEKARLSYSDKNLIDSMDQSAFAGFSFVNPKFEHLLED
Protocol: as §1, §2, §3

[8] = read-out: IC50 Values (μg/mL) (converted)

T1 sequence (P24723 whole entry): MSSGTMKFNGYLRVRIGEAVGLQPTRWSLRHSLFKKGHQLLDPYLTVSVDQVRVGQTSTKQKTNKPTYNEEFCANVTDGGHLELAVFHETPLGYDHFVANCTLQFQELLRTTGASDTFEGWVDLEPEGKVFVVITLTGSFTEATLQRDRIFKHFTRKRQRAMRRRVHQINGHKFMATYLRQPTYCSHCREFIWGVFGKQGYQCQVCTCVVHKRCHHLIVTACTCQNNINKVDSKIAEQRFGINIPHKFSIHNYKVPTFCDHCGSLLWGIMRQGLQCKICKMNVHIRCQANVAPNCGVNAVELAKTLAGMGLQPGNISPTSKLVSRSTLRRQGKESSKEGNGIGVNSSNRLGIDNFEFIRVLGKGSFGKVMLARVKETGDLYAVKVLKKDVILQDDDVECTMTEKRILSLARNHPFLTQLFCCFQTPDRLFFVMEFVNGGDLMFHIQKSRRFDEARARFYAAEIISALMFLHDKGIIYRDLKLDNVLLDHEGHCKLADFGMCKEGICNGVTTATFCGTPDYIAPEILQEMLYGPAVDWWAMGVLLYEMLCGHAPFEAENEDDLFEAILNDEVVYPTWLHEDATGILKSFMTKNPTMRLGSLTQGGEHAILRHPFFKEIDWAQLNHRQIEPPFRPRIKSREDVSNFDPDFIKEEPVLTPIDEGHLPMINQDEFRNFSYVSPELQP

SMILES | IC50 [1] | IC50 ([2]; read-out: IC50 Values) | IC50 [2, 8] | IC50 ([3]; read-out: IC50 Values) | IC50 [3, 8] | IC50 ([4]; read-out: IC50 Values) | IC50 [4, 8] | IC50 ([5]; read-out: IC50 Values) | IC50 ([5]; read-out: IC50 Values (μg/mL)) | IC50 ([6]; read-out: IC50 Values) | IC50 [6, 8] | IC50 ([7]; read-out: IC50 Values) | IC50 ([7]; read-out: IC50 Values (μg/mL))
c1cc2cnccc2cn1 [2,6-Naphthyridine] | 0.009 µM | – | – | – | – | – | – | – | – | – | – | – | –
CC1CCC(c2ccoc2)N2C1CCC1(CSC3(CCC4C(C)CCC(c5ccoc5)N4C3O)C1)C2O (stereo not shown) [DTBN, 6,6′-dihydroxythiobinupharidine] | – | 0.168 µM | 0.169 µM | 0.174 µM | 0.175 µM | 18.6 µM | 18.6 µM | > 19 µM | > 19 µM | 14.2 µM | 14.2 µM | > 19 µM | > 19 µM
